Test results reported in PMC9124818 (Pharmacology Research & Perspectives, 2022).

Columns and labels:
[1] = target: CYP2D6 (Homo sapiens, UniProt P10635); details: CYP2D6‐dependent dextromethorphan O‐demethylation; ref 35 von Moltke et al.; cited from earlier work
[2] = target: T1, CYP1A2 (Homo sapiens, UniProt P05177); details: ref 35 von Moltke et al.; cited from earlier work
T1 sequence (P05177 1-516): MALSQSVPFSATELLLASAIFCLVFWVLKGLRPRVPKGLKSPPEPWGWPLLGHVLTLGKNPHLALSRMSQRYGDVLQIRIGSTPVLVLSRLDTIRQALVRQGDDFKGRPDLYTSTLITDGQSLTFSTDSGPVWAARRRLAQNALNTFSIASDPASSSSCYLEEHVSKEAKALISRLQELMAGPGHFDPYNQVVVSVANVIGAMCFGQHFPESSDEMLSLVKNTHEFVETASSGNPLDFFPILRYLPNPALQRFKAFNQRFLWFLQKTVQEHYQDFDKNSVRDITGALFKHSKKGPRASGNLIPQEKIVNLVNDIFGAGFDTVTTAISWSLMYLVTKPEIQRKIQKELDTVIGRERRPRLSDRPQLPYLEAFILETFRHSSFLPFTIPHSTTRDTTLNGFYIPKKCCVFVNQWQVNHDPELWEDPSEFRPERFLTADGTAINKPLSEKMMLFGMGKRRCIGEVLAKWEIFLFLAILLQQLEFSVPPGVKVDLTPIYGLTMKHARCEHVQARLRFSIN

[3] = target: CYP2C9 (Homo sapiens, UniProt P11712); details: ref 35 von Moltke et al.; cited from earlier work
[4] = test system: CYP3A; details: ref 35 von Moltke et al.; cited from earlier work
[5] = test system: CYP1A2 mRNA; test: CYP450 induction in cultured human hepatocytes, mRNA by qRT-PCR; format: cell-based; details: human, hepatocytes, 3 days, 50 μM
Procedure: Each PCR was performed in triplicate.

CYP2D6, sequence (P10635 whole entry): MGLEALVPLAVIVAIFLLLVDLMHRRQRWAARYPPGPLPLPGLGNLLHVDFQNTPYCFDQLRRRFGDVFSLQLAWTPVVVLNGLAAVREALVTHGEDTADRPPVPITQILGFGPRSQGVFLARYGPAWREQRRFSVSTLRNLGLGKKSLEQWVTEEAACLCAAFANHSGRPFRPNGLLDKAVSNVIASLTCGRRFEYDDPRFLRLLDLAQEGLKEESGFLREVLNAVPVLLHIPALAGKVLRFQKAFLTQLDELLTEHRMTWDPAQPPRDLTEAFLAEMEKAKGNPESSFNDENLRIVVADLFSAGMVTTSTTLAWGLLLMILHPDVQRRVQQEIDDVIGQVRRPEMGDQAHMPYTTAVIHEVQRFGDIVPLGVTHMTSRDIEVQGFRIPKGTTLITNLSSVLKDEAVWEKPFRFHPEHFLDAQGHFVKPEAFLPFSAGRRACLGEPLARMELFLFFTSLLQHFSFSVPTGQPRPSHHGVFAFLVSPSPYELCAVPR
CYP2C9, sequence (P11712 whole entry): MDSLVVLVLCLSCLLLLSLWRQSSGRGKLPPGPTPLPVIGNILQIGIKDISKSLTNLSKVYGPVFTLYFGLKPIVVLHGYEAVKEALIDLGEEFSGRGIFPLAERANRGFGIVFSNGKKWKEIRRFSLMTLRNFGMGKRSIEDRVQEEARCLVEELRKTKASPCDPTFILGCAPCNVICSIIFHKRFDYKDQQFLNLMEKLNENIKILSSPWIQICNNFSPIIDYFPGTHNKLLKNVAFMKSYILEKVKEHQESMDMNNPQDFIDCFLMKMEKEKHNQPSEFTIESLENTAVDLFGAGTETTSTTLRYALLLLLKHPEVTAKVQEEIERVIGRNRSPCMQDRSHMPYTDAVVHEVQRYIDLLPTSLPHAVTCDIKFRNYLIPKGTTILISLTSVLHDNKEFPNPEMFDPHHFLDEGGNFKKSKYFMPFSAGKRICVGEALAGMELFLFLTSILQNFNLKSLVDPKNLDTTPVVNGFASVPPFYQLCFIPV

SMILES	IC50 [1] [µM]	inhibitor potential [2]	inhibitor potential [3]	inhibitor potential [4]	increase in CYP1A2 mRNA levels [5]
CCN[C@@H](C)Cc1cccc(C(F)(F)F)c1 [D‐FFA]	15.1	weak or negligible inhibitor potential	weak or negligible inhibitor potential	weak or negligible inhibitor potential	–
CCN[C@H](C)Cc1cccc(C(F)(F)F)c1 [L‐FFA]	15.1	weak or negligible inhibitor potential	weak or negligible inhibitor potential	weak or negligible inhibitor potential	–
COc1ccc2[nH]c([S+]([O-])Cc3ncc(C)c(OC)c3C)nc2c1 (stereo not drawn) [Omeprazole, omeprazole, reference compound]	–	–	–	–	32.7-52.5 fold
